Converted amounts (≈) assume the structure as drawn.
test system: Escherichia coli; assay: Antimicrobial activity against Escherichia coli DH5alpha harboring metallo-beta-lactamase IND-6 after 18 hrs by broth microdilution method; type: functional; settings: DH5[alpha]

Compound	MIC
C[C@@H](O)[C@H]1C(=O)N2C(C(=O)O)=C(SCCNC=N)C[C@H]12 [IMIPENEM ANHYDROUS]	1 µg/mL (≈ 3.34 µM)
CC(C)(O/N=C(\C(=O)N[C@@H]1C(=O)N2C(C(=O)[O-])=C(C[n+]3ccccc3)CS[C@H]12)c1csc(N)n1)C(=O)O [CEFTAZIDIME]	1 µg/mL (≈ 1.83 µM)
CC1(C)S[C@@H]2[C@H](NC(=O)[C@H](N)c3ccccc3)C(=O)N2[C@H]1C(=O)O [AMPICILLIN]	32 µg/mL (≈ 91.6 µM)
CO[C@@]1(NC(=O)Cc2cccs2)C(=O)N2C(C(=O)O)=C(COC(N)=O)CS[C@@H]21 [CEFOXITIN]	16 µg/mL (≈ 37.4 µM)
C[C@H]1[C@H](NC(=O)/C(=N\OC(C)(C)C(=O)O)c2csc(N)n2)C(=O)N1S(=O)(=O)O [AZTREONAM]	0.25 µg/mL (≈ 0.574 µM)
CO/N=C(\C(=O)N[C@@H]1C(=O)N2C(C(=O)[O-])=C(C[N+]3(C)CCCC3)CS[C@H]12)c1csc(N)n1 [CEFEPIME]	0.12 µg/mL (≈ 0.25 µM)
CC1(C)S[C@@H]2[C@H](NC(=O)[C@H](C(=O)O)c3ccsc3)C(=O)N2[C@H]1C(=O)O [TICARCILLIN]	256 µg/mL (≈ 666 µM)
CO/N=C(\C(=O)N[C@@H]1C(=O)N2C(C(=O)O)=C(COC(C)=O)CS[C@H]12)c1csc(N)n1 [CEFOTAXIME]	0.5 µg/mL (≈ 1.1 µM)
CC(=O)OCC1=C(C(=O)O)N2C(=O)[C@@H](NC(=O)Cc3cccs3)[C@H]2SC1 [CEPHALOTHIN]	64 µg/mL (≈ 161 µM)
CO[C@@]1(NC(=O)C(C(=O)O)c2ccsc2)C(=O)N2[C@@H](C(=O)O)C(C)(C)S[C@@H]21 (stereo partly specified) [TEMOCILLIN]	16 µg/mL (≈ 38.6 µM)
C[C@@H](O)[C@H]1C(=O)N2C(C(=O)O)=C(S[C@@H]3CN[C@H](C(=O)N(C)C)C3)[C@H](C)[C@H]12 [MEROPENEM]	0.12 µg/mL (≈ 0.313 µM)
CO/N=C(\C(=O)N[C@@H]1C(=O)N2C(C(=O)O)=C(CSc3nc(=O)c(O)nn3C)CS[C@H]12)c1csc(N)n1 [CEFTRIAXONE]	0.12 µg/mL (≈ 0.216 µM)
CO/N=C(\C(=O)N[C@@H]1C(=O)N2C(C(=O)O)=C(COC(N)=O)CS[C@H]12)c1ccco1 [CEFUROXIME]	32 µg/mL (≈ 75.4 µM)

test system: Chryseobacterium indologenes; assay: Antimicrobial activity against Chryseobacterium indologenes 597 expressing metallo-beta-lactamase IND-6 after 18 hrs by broth microdilution method in presence of beta-lactamase inhibitor clavulanic acid; type: functional; settings: Chryseobacterium indologenes, 597, 18 h

Compound	MIC
CC1(C)S[C@@H]2[C@H](NC(=O)[C@H](N)c3ccc(O)cc3)C(=O)N2[C@H]1C(=O)O [AMOXICILLIN]	≥ 64 µg/mL

test system: Chryseobacterium indologenes; assay: Antimicrobial activity against Chryseobacterium indologenes 597 expressing metallo-beta-lactamase IND-6 after 18 hrs by broth microdilution method; type: functional; settings: Chryseobacterium indologenes, 597, 18 h

Compound	MIC
C[C@@H](O)[C@H]1C(=O)N2C(C(=O)O)=C(SCCNC=N)C[C@H]12 [IMIPENEM ANHYDROUS]	≥ 64 µg/mL
CC(C)(O/N=C(\C(=O)N[C@@H]1C(=O)N2C(C(=O)[O-])=C(C[n+]3ccccc3)CS[C@H]12)c1csc(N)n1)C(=O)O [CEFTAZIDIME]	8 µg/mL (≈ 14.6 µM)
CC1(C)S[C@@H]2[C@H](NC(=O)[C@H](N)c3ccccc3)C(=O)N2[C@H]1C(=O)O [AMPICILLIN]	≥ 64 µg/mL
CCN1CCN(C(=O)N[C@@H](C(=O)N[C@@H]2C(=O)N3[C@@H]2SC(C)(C)[C@@H]3C(=O)O)c2ccccc2)C(=O)C1=O [PIPERACILLIN]	4 µg/mL (≈ 7.73 µM)
CO[C@@]1(NC(=O)Cc2cccs2)C(=O)N2C(C(=O)O)=C(COC(N)=O)CS[C@@H]21 [CEFOXITIN]	16 µg/mL (≈ 37.4 µM)
CO/N=C(\C(=O)N[C@@H]1C(=O)N2C(C(=O)[O-])=C(C[N+]3(C)CCCC3)CS[C@H]12)c1csc(N)n1 [CEFEPIME]	1 µg/mL (≈ 2.08 µM)
CO/N=C(\C(=O)N[C@@H]1C(=O)N2C(C(=O)O)=C(COC(C)=O)CS[C@H]12)c1csc(N)n1 [CEFOTAXIME]	32 µg/mL (≈ 70.3 µM)
CC(=O)OCC1=C(C(=O)O)N2C(=O)[C@@H](NC(=O)Cc3cccs3)[C@H]2SC1 [CEPHALOTHIN]	≥ 64 µg/mL
C[C@@H](O)[C@H]1C(=O)N2C(C(=O)O)=C(S[C@@H]3CN[C@H](C(=O)N(C)C)C3)[C@H](C)[C@H]12 [MEROPENEM]	8 µg/mL (≈ 20.9 µM)
CO/N=C(\C(=O)N[C@@H]1C(=O)N2C(C(=O)O)=C(COC(N)=O)CS[C@H]12)c1ccco1 [CEFUROXIME]	≥ 64 µg/mL

test system: Escherichia coli; assay: Antimicrobial activity against Escherichia coli DH5alpha harboring plasmid pBC-SK after 18 hrs by broth microdilution method; type: functional; settings: DH5[alpha]

Compound	MIC
CC(C)(O/N=C(\C(=O)N[C@@H]1C(=O)N2C(C(=O)[O-])=C(C[n+]3ccccc3)CS[C@H]12)c1csc(N)n1)C(=O)O [CEFTAZIDIME]	0.12 µg/mL (≈ 0.22 µM)
CO[C@@]1(NC(=O)Cc2cccs2)C(=O)N2C(C(=O)O)=C(COC(N)=O)CS[C@@H]21 [CEFOXITIN]	2 µg/mL (≈ 4.68 µM)
C[C@H]1[C@H](NC(=O)/C(=N\OC(C)(C)C(=O)O)c2csc(N)n2)C(=O)N1S(=O)(=O)O [AZTREONAM]	0.25 µg/mL (≈ 0.574 µM)
CO/N=C(\C(=O)N[C@@H]1C(=O)N2C(C(=O)[O-])=C(C[N+]3(C)CCCC3)CS[C@H]12)c1csc(N)n1 [CEFEPIME]	0.03 µg/mL (≈ 0.0624 µM)
CC1(C)S[C@@H]2[C@H](NC(=O)[C@H](C(=O)O)c3ccsc3)C(=O)N2[C@H]1C(=O)O [TICARCILLIN]	4 µg/mL (≈ 10.4 µM)
CO/N=C(\C(=O)N[C@@H]1C(=O)N2C(C(=O)O)=C(COC(C)=O)CS[C@H]12)c1csc(N)n1 [CEFOTAXIME]	0.12 µg/mL (≈ 0.263 µM)
CC(=O)OCC1=C(C(=O)O)N2C(=O)[C@@H](NC(=O)Cc3cccs3)[C@H]2SC1 [CEPHALOTHIN]	4 µg/mL (≈ 10.1 µM)
CO[C@@]1(NC(=O)C(C(=O)O)c2ccsc2)C(=O)N2[C@@H](C(=O)O)C(C)(C)S[C@@H]21 (stereo partly specified) [TEMOCILLIN]	4 µg/mL (≈ 9.65 µM)
C[C@@H](O)[C@H]1C(=O)N2C(C(=O)O)=C(S[C@@H]3CN[C@H](C(=O)N(C)C)C3)[C@H](C)[C@H]12 [MEROPENEM]	0.03 µg/mL (≈ 0.0782 µM)
CO/N=C(\C(=O)N[C@@H]1C(=O)N2C(C(=O)O)=C(CSc3nc(=O)c(O)nn3C)CS[C@H]12)c1csc(N)n1 [CEFTRIAXONE]	0.03 µg/mL (≈ 0.0541 µM)
CO/N=C(\C(=O)N[C@@H]1C(=O)N2C(C(=O)O)=C(COC(N)=O)CS[C@H]12)c1ccco1 [CEFUROXIME]	2 µg/mL (≈ 4.71 µM)

test system: Chryseobacterium indologenes; assay: Antimicrobial activity against Chryseobacterium indologenes 597 expressing metallo-beta-lactamase IND-6 after 18 hrs by broth microdilution method in presence of beta-lactamase inhibitor Tazobactam; type: functional; settings: Chryseobacterium indologenes, 597, 18 h

Compound	MIC
CCN1CCN(C(=O)N[C@@H](C(=O)N[C@@H]2C(=O)N3[C@@H]2SC(C)(C)[C@@H]3C(=O)O)c2ccccc2)C(=O)C1=O [PIPERACILLIN]	4 µg/mL
